In patent US8283348B2, “1-benzyl-3-hydroxymethylindazole derivatives and use thereof in the treatment of diseases based on the expression of MCP-1, CX3CR1 and p40” (Aziende Chimiche Riunite Angelini Francesco A.C.R.A.F. …, priority 2008, dated 2012) one finds inhibition and melting point data, which are given here for 8 compounds.

In one data set the test system is MCP-1. The data set is described as follows: Production of MCP-1 protein by LPS-stimulated MonoMac6 cells (ELISA). It is filed as cell-based. The following applies: Homo sapiens, MONO-MAC-6, MCP-1 protein in supernatant (ELISA), LPS 100 ng/ml 20 h; for inhibition at 30 µM: MonoMac6, compound 30 μM (maximum soluble concentration); for inhibition at 75 µM: MonoMac6, compound 75 μM (maximum soluble concentration); for inhibition at 150 µM: MonoMac6, compound 150 μM (maximum soluble concentration); for inhibition at 300 µM: MonoMac6, compound 300 μM (maximum soluble concentration). On the procedure:
The capacity of the compounds to inhibit the expression of the protein MCP-1 by lipopolysaccharide (LPS)-stimulated MonoMac6 cells was evaluated. The cells were placed in 96-well plates at a concentration of 50 000 cells/well. The compounds were tested at the maximum soluble concentration given in Table 2 (in the range 30-300 μM) and incubated for 1 hour. The cells were then stimulated with LPS (100 ng/ml) for 20 hours.
The amount of MCP-1 produced was measured in the supernatants, suitably diluted with buffer, by means of an immunoenzymatic test (ELISA) using a commercial kit (ELISA MCP-1/JE, R&D Systems).
The results obtained, expressed as a percentage of inhibition, are collated in Table 2 below.
Background: An ELISA detects its analyte on a solid surface through an enzyme-linked reagent.

The next data set relates to human p40. The data set is described as follows: Gene expression of p40 in LPS-stimulated MonoMac6 cells (real-time RT-PCR). It is filed as cell-based. Conditions: MONO-MAC-6, p40 mRNA, LPS 100 ng/ml 4 h; for inhibition at 75 µM: MonoMac6, compound 75 μM (maximum soluble concentration); for inhibition at 150 µM: MonoMac6, compound 150 μM (maximum soluble concentration). On the procedure: The capacity of the compounds to inhibit the expression of p40 by lipopolysaccharide (LPS)-stimulated MonoMac6 cells was evaluated. The cells were placed in 96-well plates at a concentration of 50 000 cells/well. The compounds were tested at the maximum soluble concentration given in Table 4 (in the range 30-300 μM) and incubated for 1 hour. The cells were then stimulated with LPS (100 ng/ml) for 4 hours.
(§1) The total RNA was extracted from the cell pellet using the RNeasy mini kit (Qiagen), reverse-transcribed with the TaqMan Reverse transcription reagents synthesis kit (Applied Biosystems) and the cDNA obtained was used for the real-time PCR reaction. The amplification was obtained in 96-well plates using the ABI Prism 7000 sequence detection system (Applied Biosystems), by applying the following temperature profile: 50° C. for 2 minutes, 95° C. for 10 minutes and 45 cycles at 95° C. for 15 seconds and 60° C. for 1 minute. For the amplification, a set of primers and probe specific for human p40 was used (Applied Biosystems, RefSeq NM_002187.2). A set of primers and probe for β-actin was used in separate wells as an internal control of the samples for the purposes of normalization. Once the reaction had taken place, the fluorescence data were analysed using the ABI Prism 7000 SDS software, by calculating the threshold cycle (Ct) for each sample and subsequently performing a relative quantification via the ΔΔCt method.
The results obtained, expressed as a percentage of inhibition, are collated in Table 4 below.

The test system of a further data set is human CX3CR1. The data set is described as follows: Gene expression of CX3CR1 in LPS-stimulated MonoMac6 cells (real-time RT-PCR). Conditions: MONO-MAC-6, CX3CR1 mRNA, LPS 100 ng/ml 20 h; for inhibition at 75 µM: MonoMac6, compound 75 μM (maximum soluble concentration); for inhibition at 150 µM: MonoMac6, compound 150 μM (maximum soluble concentration); for inhibition at 300 µM: MonoMac6, compound 300 μM (maximum soluble concentration). It is filed as cell-based. On the procedure: as §1, with “The capacity of the compounds to inhibit the expression of CX3CR1 by lipopolysaccharide (LPS)-stimulated MonoMac6 cells was evaluated. The cells were placed in 96-well plates at a concentration of 50 000 cells/well. The compounds were tested at the maximum soluble concentration given in Table 3 (in the range 30-300 μM) and incubated for 1 hour. The cells were then stimulated with LPS (100 ng/ml) for 20 hours. The total” for “The total”, “for human CX3CR1 was used” for “for human p40 was used”, “Biosystems, RefSeq NM_001337.3). A set” for “Biosystems, RefSeq NM_002187.2). A set”, “ΔΔCt method. The results obtained, expressed as a percentage of inhibition, are collated in Table 3 below.” for “ΔΔCt method.”

The next data set deals with human MCP-1. The data set is described as follows: Gene expression of MCP-1 in LPS-stimulated MonoMac6 cells (real-time RT-PCR). It is filed as cell-based. The following applies: MONO-MAC-6, MCP-1 mRNA, 1 h preincubation, LPS 100 ng/ml 4 h; for inhibition at 75 µM: MonoMac6, compound 75 μM (maximum soluble concentration); for inhibition at 150 µM: MonoMac6, compound 150 μM (maximum soluble concentration); for inhibition at 300 µM: MonoMac6, compound 300 μM (maximum soluble concentration). The procedure: The capacity of the compounds to inhibit the expression of MCP-1 by lipopolysaccharide (LPS)-stimulated MonoMac6 cells was evaluated. The cells were placed in 96-well plates at a concentration of 50 000 cells/well. The compounds were tested at the maximum soluble concentration given in Table 1 (in the range 30-300 μM) and incubated for 1 hour. The cells were then stimulated with LPS (100 ng/ml) for 4 hours.
as §1, with “MCP-1” for “p40”, “NM_002982.3).” for “NM_002187.2).”
The results obtained, expressed as a percentage of inhibition, are collated in Table 1 below.
In general terms: Quantitative PCR measures a nucleic acid by following its amplification.

Setting [1] is: MonoMac6, compound 30 μM (maximum soluble concentration).

Each structure is given as a SMILES string.

As for `CC(C)(OCc1nn(Cc2ccccc2)c2ccccc12)C(=O)Nc1ccccn1` [Compound 14, 2-[(1-benzyl-1H-indazol-3-yl)methoxy]-2-methyl-N-pyrid-2-ylpropanamide], the melting point (usually the temperature of the solid-liquid transition) fell in the range of 121 to 122 °C. In addition, testing at 30 µM with MCP-1 gave an inhibition of 70%. Besides, 30 µM produced 27% inhibition in the data set with human p40 (setting [1]). Moreover, 30 µM produced 44% inhibition in the data set on human CX3CR1 (setting [1]). For the same compound, in the data set on human MCP-1 (setting [1]), 30 µM produced 49% inhibition.
Compound `CN(C)CCNC(=O)C(C)(C)OCc1nn(Cc2ccccc2)c2ccccc12.Cl` [Compound 13, 2-[(1-benzyl-1H-indazol-3-yl)methoxy]-N-[2-(dimethylamino)ethyl]-2-methylpropanamide hydrochloride] returned a melting point of 136 to 137 °C. Also, the inhibition (as a rule, the change of the read-out against control, counted positive when it falls) at 75 µM in the data set with MCP-1 is 74%. In the data set with human p40, this compound returned an inhibition at 75 µM of 59%. This compound returned an inhibition at 75 µM in the data set on human CX3CR1 of 100%. The inhibition at 75 µM in the data set with human MCP-1 amounted to 72%.
The compound `CC(C)(OCc1nn(Cc2ccccc2)c2ccccc12)C(=O)NO` [Compound 10, 2-[(1-benzyl-1H-indazol-3-yl)methoxy]-N-hydroxy-2-methylpropanamide] gave a melting point of 115 to 116 °C. For the same compound, in the data set with MCP-1, testing at 150 µM gave an inhibition of 91%. The compound also returned an inhibition at 150 µM in the data set with human p40 of 54%. The compound further gave an inhibition at 150 µM in the data set with human CX3CR1 of 95%. Besides, the inhibition at 150 µM in the data set on human MCP-1 came out at 61%.
Compound `CC(C)(OCc1nn(Cc2ccccc2)c2ccccc12)C(N)=O` [Compound 9, 2-[(1-benzyl-1H-indazol-3-yl)methoxy]-2-methylpropanamide] displayed a melting point of 111 to 112 °C. At 300 µM the inhibition in the data set with MCP-1 was 98%. This compound displayed an inhibition at 300 µM in the data set on human p40 (MonoMac6, compound 300 μM (maximum soluble concentration)) of 96%. This compound returned an inhibition at 300 µM in the data set on human CX3CR1 of 99%. This compound returned an inhibition at 300 µM in the data set with human MCP-1 of 99%.
Regarding `CC(C)(OCc1nn(Cc2ccccc2)c2ccccc12)C(=O)NNC(N)=O` [Compound 12, 2-{2-[(1-benzyl-1H-indazol-3-yl)methoxy]-2-methylpropanoyl}hydrazinecarboxamide], the inhibition at 300 µM with MCP-1 turned out to be 48%; with human CX3CR1, 83%; in the data set with human MCP-1, 20%.
The compound `CN1CCN(C(=O)C(C)(C)OCc2nn(Cc3ccccc3)c3ccccc23)CC1` [Compound 15, 1-benzyl-3-{[1,1-dimethyl-2-(4-methylpiperazin-1-yl)-2-oxoethoxy]methyl}-1H-indazole] came in with a melting point of 97 to 98 °C. Also, testing at 75 µM in the data set on MCP-1 gave an inhibition of 59%. In the data set with human p40, this compound registered an inhibition at 75 µM of 33%. The compound also came in with an inhibition at 75 µM with human CX3CR1 of 89%. Further, the inhibition at 75 µM in the data set on human MCP-1 came out at 40%.
The compound `CC(C)(OCc1nn(Cc2ccccc2)c2ccccc12)C(=O)NN` [Compound 11, 2-[(1-benzyl-1H-indazol-3-yl)methoxy]-2-methylpropanohydrazide] yielded a melting point of 92 to 93 °C. In addition, the inhibition at 150 µM with MCP-1 worked out at 79%. The compound further had an inhibition at 150 µM with human p40 of 44%. Moreover, the inhibition at 150 µM in the data set with human CX3CR1 is 90%. For the same compound, the inhibition at 150 µM with human MCP-1 is 68%.
Compound `CC(C)(OCc1nn(Cc2ccccc2)c2ccccc12)C(=O)NNc1ccccc1` [Compound 27, 2-[(1-benzyl-1H-indazol-3-yl)methoxy]-2-methyl-N′-phenylpropanohydrazide] showed a melting point of 124 to 125 °C. The inhibition at 30 µM with MCP-1 was determined as 82%.
